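Briefly, cells in 96-well plates were exposed to five compound concentrations for 48 h, and endpoints were estimated by linear interpolation. GI50 = concentration required for 50% inhibition of growth.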 Active and inactive are the calls of the source. Cut-off read from the data, not from the text of the source: active = GI50 up to about 1.1 µM and inactive = higher.
Legend:
Experiment in all cases: NCI-60 cell line screen, 48 h
SR = test system: SR
DU-145 = test system: DU-145
MDA-MB-231 = test system: MDA-MB-231
SF-539 = test system: SF-539
HCT-15 = test system: HCT-15
HT-29 = test system: HT-29
Hs-578T = test system: Hs-578T
UACC-62 = test system: UACC-62
Malme-3M = test system: Malme-3M
SK-MEL-28 = test system: SK-MEL-28
SK-MEL-2 = test system: SK-MEL-2
U-251 = test system: U-251
HCC 2998 = test system: HCC 2998
786-0 = test system: 786-0
COLO 205 = test system: COLO 205
HL-60 = test system: HL-60
SF-295 = test system: SF-295
MCF7 = test system: MCF7
BT-549 = test system: BT-549
OVCAR-3 = test system: OVCAR-3
HOP-92 = test system: HOP-92
OVCAR-5 = test system: OVCAR-5
HCT-116 = test system: HCT-116
PC-3 = test system: PC-3
IGROV-1 = test system: IGROV-1
HOP-62 = test system: HOP-62
K562 = test system: K562
EKVX = test system: EKVX
MDA-MB-435 = test system: MDA-MB-435
ACHN = test system: ACHN
UACC-257 = test system: UACC-257
A549 = test system: A549
KM12 = test system: KM12
NCI-H522 = test system: NCI-H522
CCRF-CEM = test system: CCRF-CEM
T47D = test system: T47D
SF-268 = test system: SF-268
LOX IMVI = test system: LOX IMVI
MOLT-4 = test system: MOLT-4
OVCAR-4 = test system: OVCAR-4
SW-620 = test system: SW-620
NCI/ADR-RES = test system: NCI/ADR-RES
SN12C = test system: SN12C
A498 = test system: A498
CAKI-1 = test system: CAKI-1
SNB-19 = test system: SNB-19
NCI-H23 = test system: NCI-H23
OVCAR-8 = test system: OVCAR-8
RPMI-8226 = test system: RPMI-8226
UO-31 = test system: UO-31
SK-MEL-5 = test system: SK-MEL-5
RXF 393 = test system: RXF 393
M14 = test system: M14
NCI-H226 = test system: NCI-H226
TK-10 = test system: TK-10
NCI-H460 = test system: NCI-H460
SNB-75 = test system: SNB-75
SK-OV-3 = test system: SK-OV-3
MDA-N = test system: MDA-N

Measured: GI50

CCOC(=O)c1c(N2CCN(C)CC2)[nH]c(=O)c(C(c2c(Cl)cccc2Cl)c2c(O)c(C(=O)OCC)c(N3CCN(C)CC3)[nH]c2=O)c1O
30.7 µM: HCT-15
inactive: SR 21.9 µM | DU-145 17.8 µM | MDA-MB-231 25.5 µM | SF-539 19.4 µM | HT-29 19.8 µM | Hs-578T 33.8 µM | UACC-62 21.5 µM | Malme-3M 22.6 µM | SK-MEL-28 17.9 µM | SK-MEL-2 26 µM | U-251 23.1 µM | HCC 2998 36.8 µM | 786-0 27.7 µM | COLO 205 33.1 µM | HL-60 19.5 µM | SF-295 28.1 µM | MCF7 29.5 µM | BT-549 20.6 µM | OVCAR-3 34.8 µM | HOP-92 19.1 µM | OVCAR-5 43 µM | HCT-116 38.1 µM | PC-3 22.5 µM | IGROV-1 20.7 µM | HOP-62 30.3 µM | K562 25.8 µM | EKVX 14.5 µM | MDA-MB-435 25.8 µM | ACHN 20.7 µM | UACC-257 21.3 µM | A549 27.9 µM | KM12 23.5 µM | NCI-H522 21.9 µM | CCRF-CEM 31 µM | T47D 16.5 µM | SF-268 24.2 µM | LOX IMVI 34.5 µM | MOLT-4 23.5 µM | OVCAR-4 21.5 µM | SW-620 31.8 µM | NCI/ADR-RES 71.1 µM | SN12C 26.3 µM | A498 22.1 µM | CAKI-1 26.5 µM | SNB-19 20.4 µM | NCI-H23 40.3 µM | OVCAR-8 22 µM | RPMI-8226 39.2 µM | UO-31 21.5 µM | SK-MEL-5 20.7 µM | RXF 393 18.2 µM | M14 30 µM | NCI-H226 28.6 µM | TK-10 30.5 µM | NCI-H460 28.1 µM

N#CC1(C#N)NC(c2ccsc2)C(C#N)(C#N)NC1c1ccsc1 (stereo not drawn)
inactive: SR > 100 µM | DU-145 > 100 µM | MDA-MB-231 > 100 µM | SF-539 > 100 µM | HT-29 > 100 µM | Hs-578T > 100 µM | UACC-62 > 100 µM | Malme-3M > 100 µM | SK-MEL-28 > 100 µM | SK-MEL-2 > 100 µM | U-251 > 100 µM | HCC 2998 > 100 µM | 786-0 > 100 µM | COLO 205 > 100 µM | HL-60 > 100 µM | SF-295 > 100 µM | MCF7 > 100 µM | BT-549 > 100 µM | SNB-75 > 100 µM | OVCAR-3 > 100 µM | HOP-92 > 100 µM | OVCAR-5 > 100 µM | HCT-116 > 100 µM | PC-3 > 100 µM | IGROV-1 > 100 µM | HOP-62 > 100 µM | SK-OV-3 > 100 µM | K562 > 100 µM | EKVX > 100 µM | MDA-MB-435 > 100 µM | ACHN > 100 µM | UACC-257 > 100 µM | A549 > 100 µM | KM12 > 100 µM | MDA-N > 100 µM | NCI-H522 > 100 µM | CCRF-CEM 80.2 µM | SF-268 > 100 µM | LOX IMVI > 100 µM | MOLT-4 > 100 µM | OVCAR-4 > 100 µM | SW-620 > 100 µM | NCI/ADR-RES > 100 µM | SN12C > 100 µM | A498 > 100 µM | CAKI-1 > 100 µM | SNB-19 > 100 µM | NCI-H23 > 100 µM | OVCAR-8 > 100 µM | RPMI-8226 > 100 µM | UO-31 > 100 µM | SK-MEL-5 > 100 µM | M14 > 100 µM | NCI-H226 > 100 µM | TK-10 > 100 µM | NCI-H460 > 100 µM
> 100 µM: HCT-15

Cc1n[nH]c(=O)n1/N=C/c1ccco1
> 100 µM: HCT-15
inactive: DU-145 > 100 µM | MDA-MB-231 > 100 µM | SF-539 > 100 µM | HT-29 > 100 µM | Hs-578T > 100 µM | UACC-62 > 100 µM | Malme-3M > 100 µM | SK-MEL-28 > 100 µM | SK-MEL-2 > 100 µM | U-251 > 100 µM | HCC 2998 > 100 µM | 786-0 > 100 µM | COLO 205 > 100 µM | SF-295 > 100 µM | MCF7 > 100 µM | BT-549 > 100 µM | SNB-75 > 100 µM | OVCAR-3 > 100 µM | OVCAR-5 > 100 µM | HCT-116 > 100 µM | PC-3 > 100 µM | HOP-62 > 100 µM | SK-OV-3 > 100 µM | K562 > 100 µM | EKVX > 100 µM | MDA-MB-435 > 100 µM | ACHN > 100 µM | UACC-257 > 100 µM | A549 > 100 µM | KM12 > 100 µM | CCRF-CEM > 100 µM | T47D > 100 µM | SF-268 > 100 µM | MOLT-4 > 100 µM | OVCAR-4 > 100 µM | SW-620 > 100 µM | NCI/ADR-RES > 100 µM | SN12C > 100 µM | A498 > 100 µM | CAKI-1 > 100 µM | SNB-19 > 100 µM | NCI-H23 > 100 µM | OVCAR-8 > 100 µM | RPMI-8226 > 100 µM | UO-31 > 100 µM | RXF 393 > 100 µM | M14 > 100 µM | NCI-H226 > 100 µM | NCI-H460 > 100 µM

CC12CCC(/C(=N/c3ccc([N+](=O)[O-])cc3)C1=O)C2(C)C (stereo not drawn)
inactive: SR 22.5 µM | DU-145 25.7 µM | MDA-MB-231 18.3 µM | SF-539 18.2 µM | HT-29 21 µM | UACC-62 > 100 µM | Malme-3M 13.9 µM | SK-MEL-28 12 µM | SK-MEL-2 19 µM | U-251 24.9 µM | HCC 2998 17.4 µM | 786-0 16.8 µM | COLO 205 19.4 µM | SF-295 27.1 µM | MCF7 > 100 µM | BT-549 36.6 µM | OVCAR-3 21.4 µM | OVCAR-5 51.5 µM | HCT-116 19.1 µM | PC-3 24.5 µM | IGROV-1 25.1 µM | HOP-62 25.2 µM | SK-OV-3 28.4 µM | K562 19 µM | EKVX 20.1 µM | MDA-MB-435 17.1 µM | ACHN > 100 µM | UACC-257 32.4 µM | A549 36.1 µM | KM12 19.9 µM | T47D 16.3 µM | SF-268 20.3 µM | LOX IMVI 14.7 µM | OVCAR-4 13.1 µM | SW-620 23.3 µM | NCI/ADR-RES 23.3 µM | A498 > 100 µM | CAKI-1 19.3 µM | SNB-19 33.4 µM | NCI-H23 31.6 µM | OVCAR-8 23 µM | RPMI-8226 20.1 µM | UO-31 17.8 µM | SK-MEL-5 26.2 µM | RXF 393 13.9 µM | M14 27.9 µM | NCI-H226 > 100 µM | TK-10 16.9 µM | NCI-H460 25.6 µM
24.6 µM: HCT-15
